Laboratory results as given in patent publication US10544090B2, “Anthraquinone analogs and methods of making and using thereof” (Georgia State University Research Foundation, Inc., priority 2012, dated 2020).

Experiments:
Format in all cases: cell-based
[1] = system: HeLa; experiment: Cytotoxicity against cancer cell lines (Example 5), Hela; conditions: Tables 5-12
Procedure: (§1) All of the compounds synthesized were tested against a number of cancer cell lines: Hela KB, Cos7, Molt4, K562, EU1, and T98G. The cancer cell lines vary from leukemia cell lines (Molt4, EU, K562) to solid-state tumor cell lines (Hela, KB, Cos7) and the drug resistant cell lines (T98G).

[2] = system: KB; experiment: Cytotoxicity against cancer cell lines (Example 5), KB; conditions: Tables 5-12
Procedure: as §1

[3] = system: T98G; experiment: Cytotoxicity against cancer cell lines (Example 5), T98G; conditions: Tables 5-12; drug resistant cell line
Procedure: as §1

[4] = system: MOLT4; experiment: Cytotoxicity against cancer cell lines (Example 5), Molt4; conditions: Tables 5-12; read-out: IC50 Molt4
Procedure: as §1

[5] = system: K562; experiment: Cytotoxicity against cancer cell lines (Example 5), K562; conditions: Tables 5-12
Procedure: as §1

[6] = system: EU1; experiment: Cytotoxicity against cancer cell lines (Example 5), EU1; conditions: Tables 5-12
Procedure: as §1

[7] = system: Cos7; experiment: Cytotoxicity against cancer cell lines (Example 5), Cos7; conditions: Tables 5-12
Procedure: as §1

Row | Structure (SMILES) | IC50 [1] [µM] | IC50 [2] [µM] | IC50 [3] [µM] | IC50 [4] [µM] | IC50 [5] [µM] | IC50 [6] [µM] | IC50 [7] [µM]
1 | COc1cccc2c1C(=O)c1c(OC)cc(NC(=O)COCc3ccccc3)cc1C2=O [BW-AQ-175] | > 50 | 33.6 | > 50 | 25 | > 25 | 20.5 | –
2 | COCC(=O)Nc1cc(OC)c2c(c1)C(=O)c1cccc(OC)c1C2=O [BW-AQ-170] | > 50 | > 50 | > 50 | > 25 | > 25 | > 25 | –
3 | [N-]=[N+]=NCCOc1cccc2c1C(=O)c1c(OCCN=[N+]=[N-])cc(N)cc1C2=O [BW-AQ-123] | > 50 | 20.5 | > 12.5 | > 1.6 | > 6.25 | – | –
4 | COc1cccc2c1C(=O)c1c(OC)cc(NS(=O)(=O)CCl)cc1C2=O [BW-AQ-138] | > 50 | > 50 | > 50 | > 1.6 | > 6.25 | – | > 50
5 | CCOc1cccc2c1C(=O)c1c(OCC)cc(NC(=O)CCCCl)cc1C2=O [BW-AQ-179] | 6.25 | < 6.25 | 50 | 15.3 | 10.7 | 17.6 | –
6 | CCCOC(=O)c1cc(OCCC)c2c(c1)C(=O)c1cccc(OCCC)c1C2=O [BW-AQ-147] | > 50 | > 50 | > 50 | > 25 | > 25 | > 25 | –
7 | CN1CCN(CC(=O)Nc2cc(O)c3c(c2)C(=O)c2cccc(O)c2C3=O)CC1 [BW-AQ-114] | 3.9 ± 1 | 10.2 ± 2.26 | > 12.5 | 0.284 ± 0.021 | 0.84 ± 0.36 | – | 2 ± 0.6
8 | CCOc1cccc2c1C(=O)c1c(OCC)cc(NC(=O)CN)cc1C2=O [BW-AQ-166] | 11 | 18.8 | 37.3 | > 25 | > 25 | > 25 | –
9 | [N-]=[N+]=NCCOc1cccc2c1C(=O)c1c(OCCN=[N+]=[N-])cc(C(=O)O)cc1C2=O [BW-AQ-121] | > 12.5 | > 50 | > 12.5 | > 1.6 | > 6.25 | – | > 50
10 | CCOc1cccc2c1C(=O)c1c(OCC)cc(NC(=O)COCc3ccccc3)cc1C2=O [BW-AQ-182] | 47.3 | > 50 | > 50 | 16.8 | > 25 | 16.8 | –
11 | COc1cccc2c1C(=O)c1c(OC)cc(NC(=O)C(F)(F)F)cc1C2=O [BW-AQ-132] | > 50 | > 50 | > 12.5 | > 1.6 | > 6.25 | – | > 50
12 | COc1cccc2c1C(=O)c1c(OC)cc(NC(=O)C(F)F)cc1C2=O [BW-AQ-171] | > 50 | 50 | > 50 | > 25 | > 25 | > 25 | –
13 | COC(=O)c1cc(OCCN=[N+]=[N-])c2c(c1)C(=O)c1cccc(OCCN=[N+]=[N-])c1C2=O [BW-AQ-120] | > 12.5 | > 50 | > 12.5 | > 1.6 | > 6.25 | – | ~50
14 | COc1cccc2c1C(=O)c1c(OC)cc(NC(=O)CCCCl)cc1C2=O [BW-AQ-174] | > 50 | > 50 | > 50 | > 25 | > 25 | > 25 | –
15 | COc1cccc2c1C(=O)c1c(OC)cc(NC(=O)CCCl)cc1C2=O [BW-AQ-173] | 50 | 50 | > 50 | > 25 | > 25 | 25 | –
16 | COc1cccc2c1C(=O)c1c(OC)cc(NC(C)=O)cc1C2=O [BW-AQ-134] | > 50 | > 50 | > 50 | > 1.6 | > 6.25 | – | > 50
17 | COc1cccc2c1C(=O)c1c(OC)cc(NC(=O)CC#N)cc1C2=O [BW-AQ-172] | > 50 | < 6.25 | > 50 | > 25 | > 25 | > 25 | –
